The numbers were not newly measured in US20030230530A1, “Process for the preparation of a combination of Famotidine Polymorphs A and B” (M/S. TONIRA PHARMA LIMITED, priority 2002, published 2003), which cites them from elsewhere.

For data set [1] the following is noted: background statement, comparison of Polymorph A and B.
The conditions of data set [2]: background statement, comparison of Polymorph A and B. This is another data set of the same source.

As to `N=C(N)Nc1nc(CSCCC(=N)NS(N)(=O)=O)cs1` [Polymorph B, N-Sulfamyl-3-(2-guanidinothiazole-4-yl-methylthio) proionamidine], in data set [1], the “stability of the polymorph” value was “metastable”. In data set [2], the dissolution properties result is reported as “higher dissolution properties”.

As for `N=C(N)Nc1nc(CSCCC(=N)NS(N)(=O)=O)cs1` [Polymorph A, N-Sulfamyl-3-(2-guanidinothiazole-4-yl-methylthio) proionamidine], the “stability of the polymorph” value in data set [1] is listed as “more stable”. Moreover, in data set [2], the dissolution properties entry is recorded as “low dissolution properties”.
